Test results as given in PubChem BioAssay (NCI).
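Test compounds were applied to cells in 96-well plates for 48 hours at 5 doses. TGI: total growth inhibition.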

Assays:
Experiment in all cases: DTP human tumour cell line panel, 48 h
IGROV1 ovarian = test system: IGROV1 ovarian
OVCAR-4 ovarian = test system: OVCAR-4 ovarian
MOLT-4 leukemia = test system: MOLT-4 leukemia
TK-10 renal = test system: TK-10 renal
HS 578T breast = test system: HS 578T breast
T-47D breast = test system: T-47D breast
OVCAR-5 ovarian = test system: OVCAR-5 ovarian
M14 melanoma = test system: M14 melanoma
NCI-H226 lung = test system: NCI-H226 lung

Row | Compound | TGI (IGROV1 ovarian) [µM] | TGI (OVCAR-4 ovarian) [µM] | TGI (MOLT-4 leukemia) [µM] | TGI (TK-10 renal) [µM] | TGI (HS 578T breast) [µM] | TGI (T-47D breast) [µM] | TGI (OVCAR-5 ovarian) [µM] | TGI (M14 melanoma) [µM] | TGI (NCI-H226 lung) [µM]
1 | CCOC(=O)/C=C1\Nc2ccccc2C12CCc1c([nH]c3ccccc13)C2C(=O)OCC (configuration not stated) | > 100 | > 100 | > 100 | > 100 | > 100 | > 100 | > 100 | > 100 | 
2 | CC(=O)N[C@@H](Cc1ccc(O)cn1)C(=O)NCc1ccc2c(c1)OCO2 | > 100 | > 100 | > 100 | > 100 | > 100 | > 100 | > 100 | > 100 | > 100
3 | CCCCCCCCCCCCCCCCOCC(CC(F)(F)P(=O)(O)O)OC(C)=O (configuration not stated) | > 50 |  | > 50 | > 50 |  |  | > 50 | > 50 | > 50
4 | CC1CN=C(c2cccc(OCc3ccc(COc4cccc(C5=NCC(C)N5)c4)cc3)c2)N1 (configuration not stated) | > 100 | > 100 | 57.3 | > 100 | > 100 | > 100 | > 100 | > 100 | 
5 | COc1ccc(C2CC(c3c(C)nn(-c4ccccc4)c3-c3ccc(C)cc3O)=NN2c2ccccc2)cc1 (configuration not stated) | > 100 | > 100 | > 100 | > 100 | > 100 | > 100 | > 100 | > 100 | > 100
6 | CCCCc1ccc2[n+](c1)C(C(=O)OCC)=PC2 (configuration not stated) | > 100 | > 100 | > 100 | > 100 | > 100 |  | > 100 | > 100 | 
7 | O=c1c(Cc2ccc(Cl)cc2)nnc2sc(-c3ccc([N+](=O)[O-])cc3)nn12 | > 100 | > 100 | > 100 | 68.4 | > 100 |  | 88.1 | 39.2 | 
8 | O=C1c2ccccc2NC2C(O)c3ccccc3N12 (configuration not stated) | > 100 | > 100 | 58.7 | > 100 | > 100 | > 100 | > 100 | > 100 | > 100
9 | O=c1oc2ccccc2cc1-c1nc2ccc([N+](=O)[O-])cc2o1 | > 100 |  | > 100 | > 100 | > 100 | > 100 |  | > 100 | > 100
10 | Oc1c2cccc1Cc1cccc3c1OCCOCCOCCOCCOc1c(cccc1Cc1cccc(c1O)C3)C2 | > 100 | > 100 | > 100 | > 100 | > 100 | > 100 | > 100 | > 100 | 81
11 | O=C1/C(=C/c2cccc(Oc3ccccc3)c2)N=C(c2ccccc2)N1c1nc2ccc(Sc3ccccc3)cc2[nH]1 | > 100 | > 100 | > 100 | 68.4 | > 100 | > 100 | > 100 | 74.8 | 
12 | O=C1CSC2(CC(/C=C/C=C/c3ccccc3)=NN2c2cccc(S(=O)(=O)O)c2)N1c1nc2ccccc2s1 (configuration not stated) | > 100 | > 100 | 67.1 | > 100 |  | > 100 | > 100 | > 100 | > 100
13 | Oc1ccc(-c2c3c(nc4c2CCc2ccc(Br)cc2-4)-c2cc(Br)ccc2CC3)cc1 | 30.7 | 48 |  | 45.4 |  | 42.6 | 40.6 | 55.1 | 48
14 | CN(C)c1ccc(/C=C(\NC(=O)c2ccccc2)C(=O)Nc2ccccc2C(=O)NN2C(=O)CSC2c2ccc(N(C)C)cc2)cc1 (configuration not stated) | > 100 |  | > 100 |  | > 100 | > 100 | > 100 | > 100 | > 100
15 | COc1cc(C(=O)Nc2nnc(S(N)(=O)=O)s2)cc(OC)c1OC |  | > 100 | > 100 | > 100 | > 100 | > 100 | > 100 | > 100 | > 100
16 | C=C[C@]1(C)CC[C@]2(C)C(CC[C@@]3(C)C2C[C@H](O)[C@H](O)[C@@]3(C)O)C1 (some centres not stated) | > 100 |  | > 100 | > 100 | > 100 | > 100 | > 100 | > 100 | > 100
17 | N#Cc1c(N)c(-c2ccc(Cl)cc2)c(F)c2ccccc12 | > 100 | > 100 |  | > 100 | > 100 | > 100 | > 100 | > 100 | > 100
18 | O=C1NC(=O)/C(=C\c2ccncc2)N1 | > 100 | > 100 | > 100 | > 100 |  | > 100 | > 100 | > 100 | > 100
19 | COc1ccccc1C(=O)c1c(N2CCCCC2)c(=O)c1=O | > 100 | > 100 | > 100 | > 100 |  |  | > 100 | > 100 | > 100

Row | Compound | TGI (IGROV1 ovarian) [µM] | TGI (OVCAR-4 ovarian) [µM] | TGI (MOLT-4 leukemia) [µM] | TGI (TK-10 renal) [µM] | TGI (HS 578T breast) [µM] | TGI (T-47D breast) [µM] | TGI (OVCAR-5 ovarian) [µM] | TGI (M14 melanoma) [µM] | TGI (NCI-H226 lung) [µM]
20 | O=C1c2cc3c(cc2CC12Cc1cc4c(cc1C2)CCC4)CCC3 | > 100 | > 100 | > 100 | > 100 | > 100 | > 100 | > 100 | > 100 | 
21 | O=C1/C(=C/c2ccccc2S)N=C(c2ccccc2)N1c1ccc2c(c1)Sc1cc(N3C(=O)/C(=C/c4ccccc4S)N=C3c3ccccc3)ccc1N2 | 29.1 | 90.5 | 39.7 | 31.3 | 72.4 | 51.3 | 35.6 | 35 | 
22 | Cc1ncc([N+](=O)[O-])n1CCN=[N+]=[N-] | > 100 | > 100 |  | > 100 | > 100 | > 100 | > 100 | > 100 | > 100
23 | CCCCCCCCCCCCC(=O)NCC(=O)NC(Cc1ccccc1)C(=O)Oc1ccc([N+](=O)[O-])cc1 (configuration not stated) | > 100 |  |  | > 100 | > 100 | > 100 | > 100 | > 100 | > 100
24 | Cc1ccc(Nc2nc(=O)[nH]c(=O)[nH]2)cc1N | > 100 | > 100 |  | > 100 | > 100 | > 100 | > 100 | > 100 | > 100
25 | CC1(C)CC(=O)C(/C=N/c2nc(-c3ccc(Br)cc3)cs2)=C(O)C1 | > 100 | > 100 | > 100 | 40.2 |  | > 100 | > 100 | 48.4 | > 100
26 | CC(=O)Oc1ccc2cc(Oc3ccc(Cl)cc3)c(=O)oc2c1 | > 100 | > 100 |  | > 100 | > 100 | > 100 | > 100 | > 100 | > 100
27 | O=C(c1ccccc1F)c1c(NCc2ccccc2)c(=O)c1=O | > 100 | > 100 | > 100 | > 100 | > 100 |  | > 100 | > 100 | > 100
28 | c1ccc2c3c(ccc2c1)CSCc1ccc2ccccc2c1-3 | > 100 | > 100 | > 100 | > 100 | > 100 | > 100 | > 100 | > 100 | 
29 | Cc1ccc2ccccc2c1CC1S(=O)(=O)OCCOS1(=O)=O |  | 23.6 | 27.5 | 31.1 |  |  | 24.4 | 28.7 | 
30 | COc1ccc(Cn2nc(OCc3ccccn3)c3cc([N+](=O)[O-])ccc32)cc1 | > 100 |  | > 100 | > 100 | > 100 | > 100 | > 100 | > 100 | > 100
31 | COc1cc(C2C(Cl)C(=O)N2c2ccc(Br)cc2)cc(I)c1O (configuration not stated) | 24.6 | > 100 | > 100 | > 100 | > 100 | > 100 | > 100 | > 100 | 
32 | C#CC(C)(C)Oc1cc(OC)c2c(=O)c3ccccc3n(C)c2c1 | 45 | 41.8 | 22.3 | > 100 | 60.6 | 27.9 | 98.3 |  | 36.4
33 | CSc1c(C(C)=O)c(O)n(-c2ccc(Cl)cc2)c(=O)c1C#N |  | > 100 | 55.3 | > 100 | > 100 | > 100 | > 100 | > 100 | > 100
34 | CC1=NN(c2nc(N)nc(/C(C#N)=C/c3ccncc3)n2)C(C)(C)C1 | > 100 | > 100 | > 100 | > 100 | > 100 | > 100 |  | > 100 | > 100
35 | CCOC(=O)CCC(NC(=O)OCc1ccccc1)C(=O)NNC(=O)OC(C)(C)C (configuration not stated) | > 100 | > 100 | > 100 | > 100 | > 100 | > 100 | > 100 | > 100 | 
36 | C=CCc1c(O)c2ccccc2[nH]c1=O | > 100 | > 100 | > 100 | > 100 | > 100 |  | > 100 |  | > 100
37 | O=C(C[C@@H]1NCCC[C@H]1O)Cn1cnc2cc(Br)c(Cl)cc2c1=O | 0.158 | 0.0809 | > 100 |  | 1.36 | 0.082 | 0.0883 | 0.0821 | 0.0473
